Experimental data reported in PMC8304660, “Identification of Erythromycin and Clarithromycin Metabolites Formed in Chicken Liver Microsomes Using Liquid Chromatography–High-Resolution Mass Spectrometry” (Foods, 2021).
Values joined by “and” are separate entries in the source; they are usually repeats but may differ in a detail not shown here. Identical values can stand only once.

Experiments:
P-GP = system: P-GP; design: method as in PMID 1732074, PMID 1976065; details: cited from earlier work
[1] = In vitro incubation in chicken liver microsomes with or without NADPH, LC/ESI-HR-MS analysis; type: in vitro ADME; details: for Remaining Content −Cofactor, Mean ± SD (%) / Remaining Content (%) −Cofactor, 1 / Remaining Content (%) −Cofactor, 2 / Remaining Content (%) −Cofactor, 3 / Remaining Content +Cofactor, Mean ± SD (%) / Remaining Content (%) +Cofactor, 1 / Remaining Content (%) +Cofactor, 2 / Remaining Content (%) +Cofactor, 3: chicken liver microsomes (CLM), 60 min vs 0 min incubation; for Remaining Content −Cofactor, Mean ± SD (%) / Remaining Content (%) −Cofactor, 1 / Remaining Content (%) −Cofactor, 2 / Remaining Content (%) −Cofactor, 3: no NADPH (control); for Remaining Content −Cofactor, Mean ± SD (%) / Remaining Content +Cofactor, Mean ± SD (%): mean of 3; for Remaining Content (%) −Cofactor, 1 / Remaining Content (%) +Cofactor, 1: replicate 1; for Remaining Content (%) −Cofactor, 2 / Remaining Content (%) +Cofactor, 2: replicate 2; for Remaining Content (%) −Cofactor, 3 / Remaining Content (%) +Cofactor, 3: replicate 3; for Remaining Content +Cofactor, Mean ± SD (%) / Remaining Content (%) +Cofactor, 1 / Remaining Content (%) +Cofactor, 2 / Remaining Content (%) +Cofactor, 3: with NADPH cofactor; for Remaining Content (%) +Cofactor, 2: tested at 1 µM; for Remaining Content (%) +Cofactor, 3: tested at 1 µM; for Remaining Content (%) −Cofactor, 2: tested at 1 µM; for Remaining Content (%) −Cofactor, 3: tested at 1 µM; for Remaining Content +Cofactor, Mean ± SD (%): tested at 1 µM; for Remaining Content −Cofactor, Mean ± SD (%): tested at 1 µM
Experimental: The incubation system (100 μL) contained 65 μL of potassium phosphate buffer (0.1 M, pH 7.4), 20 μL of chicken liver microsomes (5 mg/mL), 5 μL of a compound (20 μM) and […]. After a 5 min preincubation period at 37 °C, the reaction was started by introducing 10 μL of NADPH (10 mM) as the cofactor solution. The final study groups were divided into cofactor and no cofactor (control) groups. After preincubation for 5 min, 10 μL of potassium phosphate buffer (0.1 M, pH 7.4) was added to the control group. […] For 0 min samples, the reaction was quenched immediately after the 5-min preincubation, followed by the addition of 10 μL of NADPH (10 mM) and 10 μL of potassium phosphate buffer (0.1 M, pH 7.4) to the cofactor and control groups, respectively. Following brief sonication (5 min) and vortexing (5 min), the mixtures were centrifuged for 30 min at 3000 rpm and 4 °C. The supernatant was transferred to an Agilent 96-well plate and then analysed on an Agilent 6530 Q-TOF LC-MS/MS instrument.
Liquid chromatographic separation and mass spectrometric detection were performed on an Agilent 1200 series HPLC system and an Agilent 6530 Q-TOF LC-MS/MS system equipped with a dual AJS ESI ion source. Chromatographic separation was performed on an Agilent Eclipse Plus C18 column (100 mm × 2.1 mm; i.d. 3.5 µm) by gradient elution with a mobile phase consisting of 0.1 vol.% formic acid in water (A) and ACN (B) at 40 °C: 0–2 min, 5 vol.% B; 2–3 min, 50 vol.% B; 3–4 min, 75 vol.% B; and 4-5 min, 5 vol.% B. The injection volume was 5 μL with a flow rate of 0.4 mL/min. Before sample injection, the instrument was equilibrated under the initial gradient conditions (A:B = 95:5, v/v) and the above-mentioned column temperature and flow rate conditions. HR-MS detection was carried out in positive ionization mode with the following ion source parameters: capillary voltage, 4000 V; drying gas, 12 L/min and 325 °C; nebulizer gas, 35 psi; and sheath gas, 10 L/min and 350 °C. Mass spectra were acquired in positive ion auto MS/MS mode (F, 100 V; CE, 0 eV) with a full scan range of m/z (100–1000) and a mass scan rate of 5 spectra/s. The mass spectrometer was run in an extended dynamic range mode with a mass range of m/z 50–3200. The mass resolving power was greater than 12,000 FWHM at m/z 1552.
The data were analysed using Agilent MassHunter Quantitative Analysis software (version B.05.00) and Agilent MassHunter Metabolite ID software (version B.04.00) (Santa Clara, CA, USA). The remaining content was evaluated by dividing the ratio of the response of the target compound to the response of the IS at 60 min of incubation by the ratio of the response of the target compound to the response of the IS at 0 min of incubation in the cofactor group or control group.

CYP3A4 = system: CYP3A4; design: method as in PMID 1732074, PMID 1976065; details: midazolam as the CYP3A4 substrate; cited from earlier work

Remaining Content −Cofactor, Mean ± SD (%) [1]	Remaining Content (%) −Cofactor, 1 [1]	Remaining Content (%) −Cofactor, 2 [1]	Remaining Content (%) −Cofactor, 3 [1]	Remaining Content +Cofactor, Mean ± SD (%) [1]	Remaining Content (%) +Cofactor, 1 [1]	Remaining Content (%) +Cofactor, 2 [1]	Remaining Content (%) +Cofactor, 3 [1]	Structure (SMILES)	Inhibition of the activity of the drug transporter P-GP (P-GP)	Formation of N-desmethyl metabolite ([1]; chicken liver microsomes, incubation for 60 min with NADPH cofactor, extracted ion chromatograms)	Strength of drug interaction (CYP3A4)
86.6 ± 12.3%	100.7%	78.7%	80.3%	89.8% and 89.8 ± 21.5%	77.5%	77.3%	114.7%	CC[C@H]1OC(=O)[C@H](C)[C@@H](O[C@H]2C[C@@](C)(OC)[C@@H](O)[C@H](C)O2)[C@H](C)[C@@H](O[C@@H]2O[C@H](C)C[C@H](N(C)C)[C@H]2O)[C@](C)(OC)C[C@@H](C)C(=O)[C@H](C)[C@@H](O)[C@]1(C)O [CLA, clarithromycin]	do not inhibit	cannot produce N-desmethyl-clarithromycin	strong
81.5 ± 13.8%	87.5%	65.7%	91.2%	48.9% and 48.9 ± 4.5%	46.4%	46.2%	54.1%	O=C1CC2(CCCC2)CC(=O)N1CCCCN1CCN(c2ncccn2)CC1 [BUS, buspirone]	–	–	–
94.8 ± 6.3%	99.0%	97.9%	87.6%	86.6% and 86.6 ± 6.5%	82.6%	83.1%	94.1%	CC[C@H]1OC(=O)[C@H](C)[C@@H](O[C@H]2C[C@@](C)(OC)[C@@H](O)[C@H](C)O2)[C@H](C)[C@@H](O[C@@H]2O[C@H](C)C[C@H](N(C)C)[C@H]2O)[C@](C)(O)C[C@@H](C)C(=O)[C@H](C)[C@@H](O)[C@]1(C)O [ERY, erythromycin A]	–	–	–
